Reference: paper PMC5431684, “Zwitterionic near infrared fluorescent agents for noninvasive real-time transcutaneous assessment of kidney function” (Chemical Science, 2017)
Where “and” joins values, the source holds several entries; their conditions need not be identical. Identical values can stand only once. Like-named read-outs stand apart in the source and are kept apart here. Each block holds one molecule with its values, some of them ahead of it.

Assays:
[1] = Plasma protein binding (PPB) by equilibrium dialysis; type: in vitro ADME, Sprague Dawley rat; settings: Sprague Dawley, rat, plasma (Li-Heparin), equilibrium dialysis of PBS against dye-plasma stock, 37°C, UV absorption
Description: (§1) The interaction between fluorescent dyes and plasma proteins is particularly important as it affects the capability of the dyes as GRF agents in the following aspects: bio-distribution and clearance pathways as well as the rate of excretion in vivo.[15] […] ABCACY and AACACY display 54.5% and 60% PPB, respectively. […] Additionally, PPB is not only dependent on the dye hydrophilicity, but is also related to the molecular charge number and distribution. Since albumin is alkalotic, acidic agents will preferentially bind to albumin, then to lipoprotein after albumin becomes saturated. Basic agents will bind to the acidic alpha-1 acid glycoprotein.[17] Thus, anionic and cationic compounds are more inclined to bind to proteins than zwitterionic compounds. Therefore, we will mainly focus on zwitterionic compounds in the following parts.
5. […]
(§2) PPB measurements were performed by equilibrium dialysis of PBS against dye-protein stock solution (or control stock solution) using a two-chamber dialysis set-up. After 24 hours the absorption of each of the dyes or agents in PBS and plasma were determined in three independent measurements by both absorption spectroscopy and fluorescence spectroscopy in a microplate reader. The concentrations of each of the dyes or agents were calculated on the basis of the corresponding molar absorption coefficients. […] PPB in percent [%] was determined by averaging three independent measurements and following the equation of Lambert Beer law: […]
(§3) ABZWCY-HPβCD (1 mg/mL in PBS), SD rat plasma (50% in PBS), ABZWCY-HPβCD (1 mg/mL) mixed with SD rat plasma (50% in PBS) were prepared and filtered through a sterile 0.22 μm filter before analysis. […] The measurements were carried out in quadratic cells and analyzed the scattered light at an angle of 90° at a controlled temperature (25 °C). […] The apparent hydrodynamic radius was calculated according to the Stokes-Einstein […]

[2] = Urinary recovery of injected dose (metabolic cages); type: in vivo, Sprague Dawley rats
Protocol: With this in mind, we investigated the recoveries of injected doses using in vivo experiments with metabolic cages. High urinary recoveries were determined for the free dye ABZWCY and its mixture with HPβCD (99.4 ± 4.8% and 96.5 ± 5.8%, respectively, Fig. 4 and Tables 2 and S6 ^†). Similar tendencies of urinary recoveries of ABZWCY-HPβCD and AAZWCY-HPβCD with values of 97 ± 3.9% and 103.3 ± 4.2%, respectively, were also observed (Fig. 4, and Tables 2 and S7 ^†). Indeed, urinary recoveries of the given dose were almost completed at 9 h post-injection for ABZWCY-HPβCD and AAZWCY-HPβCD, which is faster than the free dye ABZWCY and in agreement with their shorter clearance half-life.
All experiments were conducted in accordance with the German Animal Protection Law and approved by the local authority (Regierungspräsidium Nordbaden, Karlsruhe Germany in agreement with EU guideline 2010/63/EU). […]
10. Urinary recovery of injected dose in urine studies
Recovery of the injected dose in urine studies were conducted in conscious, healthy Sprague Dawley rats (Body weight: 250-300 g). The corresponding test agents with corresponding dosage (ABZWCY: 2.5 mg/kg, ABZWCY mixed with HPβCD: 2.5 mg/kg mixed with 22.5 mg/kg (HPβCD), ABZWCY-HPβCD and AAZWCY-HPβCD: 50 mg/kg) were administered by tail vein injection. Urine was collected using metabolic cages in intervals of 1, 2, 3, 6, 9, 24 h after intravenous injection of agents into rats. The samples were stored at -20°C until they were analyzed. The urine samples were centrifuged for 8 min at 13000 ×g and then filtered by 0.22 μm syringe filter. A series of working solution of each agent with concentrations between 0.02 mg/mL and 2 mg/mL were prepared. Appropriate volumes of the working solutions were added to blank urine and fluorescent intensity of those mixtures were measured in order to obtain an external calibration curve. Quantification of each of the agents in urine at each time point was performed via HPLC analysis and fluorescence intensity detection. The concentration in urine at each time point was calculated based on the external calibration standards curve between fluorescence intensity and the concentration of each of the agents.
Considering biological components within urine may interfere with the fluorescent intensity of agents, the fluorescent intensity of agent were tested to study whether there is difference in urine and PBS, the emission intensity and calibration curve are compared (Figure S11). The results […]
This slightly difference can explained the urinary recoveries have some trial a little over 100% (Table S6 and S7), which can be found in other literatures studies. […]

[3] = Transcutaneous measurement of elimination kinetics in healthy rats; type: in vivo, Sprague Dawley rats; settings: for Transcutaneous elimination (clearance) curve, in words: i.v. injection
Protocol: (§4) The principles and methods of the transcutaneous technique are described in Fig. S10. ^† Firstly, as a control, IRDye800CW was chosen to be injected intravenously into rats and its elimination curves were measured transcutaneously. […] A long retention time of IRDye800CW in vivo was attributed to its higher PPB (41%) and negative charge feature, leading to skin accumulation and slow renal excretion. […] To assess whether the anionic agent ABANCY-HPβCD is reabsorbed or secreted by organic anion transporter (OAT) proteins in the kidney tubules, probenecid, an inhibitor of OAT proteins,[18] was administered (30 min prior to injection of ABANCY-HPβCD) to block tubular reabsorption and the secretion pathway, then, elimination curves were measured for the same rats. […] We also measured the cationic HPβCD based agent in the same manner and the results are similar to those of anionic HPβCD based agents. Next, the free dye ABZWCY was injected intravenously and its elimination curves were also recorded transcutaneously. […] This is in agreement with their similar PPB values (∼20%). To determine whether ABZWCY has tubular reabsorption or secretion in addition to filtration, probenecid was administered to block tubular reabsorption and the secretion pathway. […]
(§5) 8. Principle and methods for transcutaneous measurements of kidney function The transcutaneous assessment of renal function is based on the measurement of the fluorescence signal of a marker through the skin. A miniaturized transcutaneous device is comprised of two light emitting diodes (LEDs) and one photodiode (Figure S10a and 10b). The LEDs can blink every few seconds to excite a fluorescent marker using excitation wavelength of 700 nm. The fluorescent signal will be recorded by detecting the emission intensity of a fluorescent marker at 790 nm. Data are stored in the device and can be read out after measurement.[6] The clearance half-life of fluorescent agents was calculated by software, which was developed by the Institute of Medical Technology of the University of Heidelberg.[7] For this a 3-exponential function was fitted to the measured elimination curve, the peak of the curve was supposed to be 100%. Also a 1-exponential function was applied from 50% to 15% of the peak […]
(§6) Figure. S10. (a) Transcutaneous device and battery used for the transcutaneous measurement, the photodiodes and LEDs in the device. (b) A schematic overview of the excitation and emission light between a transcutaneous device and fluorescent agents in capillary vessel after injection. (c-g) The fixation procedures of a transcutaneous device on the skin and measurements in a […]
(§7) Healthy Sprague Dawley rats (Body weight: 250-300 g, 8-10 weeks) were anesthetized for a short period with Isoflurane (Forene®, AbbVie, Illinois, USA; Dosage: 5 %; Flow(O2): 5 L/min) in order to fix the transcutaneous device on the back of rats. The back of the animals was depilated with an electric shaver (Figure 10c-g). After a baseline measurement for around 5 min, a fluorescent agent in saline (DeltaSelect, GmbH, Rimbach, Germany) was injected as a bolus by tail vein injection. […] The devices were removed and the data were read out after 120 min of transcutaneous measurement. The clearance half-life of fluorescent agents was calculated by software. […]

[4] = tested on: organic anion transporter (OAT) proteins; experiment: as above; type: in vivo, Sprague Dawley rats; settings: Sprague Dawley, rat, skin (transcutaneous fluorescence signal), ip; healthy rats, 50 mg/kg probenecid i.p. 30 min prior to injection, transcutaneous; read-out: T 1/2 with probenecid (clearance half-life)
Protocol: as §4, §5, §6, §7

[5] = tested on: Sprague Dawley rat plasma; experiment: Plasma protein binding (PPB) by equilibrium dialysis; type: in vitro ADME; settings: equilibrium dialysis of PBS against dye-plasma stock, 37°C, 24 hours, UV absorption
Description: as §1
5. […]
as §2, §3

plasma protein = settings: cited from earlier work

fraction unbound at 24 h, 0.2 mg/mL [1]: 0.843
Compound: CC1(C)C(/C=C/C2=C(Nc3ccc(CCN=[N+]=[N-])cc3)C(=C/C=C3/N(CCC[N+](C)(C)C)c4ccc(S(=O)(=O)O)cc4C3(C)C)/CCC2)=[N+](CCC[N+](C)(C)C)c2ccc(S(=O)(=O)O)cc21 [AAZWCY]

dose excreted ([2]; Sprague Dawley, rat, urine, iv, 2.5 mg/kg, healthy rats, i.v., mean ± SD, n = 3, read-out: Urinary recovery in 24 h): 99.4 ± 4.8%
dose excreted at 1 h ([2]; Sprague Dawley, rat, urine, iv, 2.5 mg/kg, individual rats, cumulative, time 1 h after i.v. injection): 46.7%
dose excreted at 2 h ([2]; Sprague Dawley, rat, urine, iv, 2.5 mg/kg, individual rats, cumulative, time 2 h after i.v. injection): 65%
dose excreted at 6 h ([2]; Sprague Dawley, rat, urine, iv, 2.5 mg/kg, individual rats, cumulative, time 6 h after i.v. injection): 87.2%
dose excreted at 9 h ([2]; Sprague Dawley, rat, urine, iv, 2.5 mg/kg, individual rats, cumulative, time 9 h after i.v. injection): 96.9%
dose excreted at 24 h ([2]; Sprague Dawley, rat, urine, iv, 2.5 mg/kg, individual rats, cumulative, time 24 h after i.v. injection): 98.3%
Urinary recovery at 1 h ([2]; individual rats, cumulative, time 1 h after i.v. injection): 53.33% and 49.29%
Urinary recovery at 2 h ([2]; individual rats, cumulative, time 2 h after i.v. injection): 73.06%
Urinary recovery at 6 h ([2]; individual rats, cumulative, time 6 h after i.v. injection): 81.95% and 89.05%
Urinary recovery at 9 h ([2]; individual rats, cumulative, time 9 h after i.v. injection): 86.39%
Urinary recovery at 24 h ([2]; individual rats, cumulative, time 24 h after i.v. injection): 93.3% and 106.6%
half-life ([3]; Sprague Dawley, rat, skin (transcutaneous fluorescence signal), iv, 2.5 mg/kg, healthy rats 8-10 weeks, i.v. bolus, transcutaneous measurement, read-out: T 1/2 without probenecid (clearance half-life)): 52.6 ± 8.8 min
half-life [4]: 48.7 ± 5.4 min
PPB [5]: 19%
fraction unbound at 24 h, 0.2 mg/mL [1]: ~0.8
Compound: CC1(C)C(/C=C/C2=C(Nc3ccc(CCC(=O)O)cc3)C(=C/C=C3/N(CCC[N+](C)(C)C)c4ccc(S(=O)(=O)O)cc4C3(C)C)/CCC2)=[N+](CCC[N+](C)(C)C)c2ccc(S(=O)(=O)O)cc21 [ABZWCY]
Tubular reabsorption or secretion in the kidneys (from probenecid effect) ([3]; healthy rats, half-life with versus without probenecid): tubular reabsorption or secretion is a minor factor
Transcutaneous elimination (clearance) curve, in words ([3]; healthy rats): did not return to background levels at 2 h post-injection

Compound: CC1(C)C(/C=C/C=C/C=C/C=C2\N(CCCCS(=O)(=O)O)c3ccc4ccccc4c3C2(C)C)=[N+](CCCCS(=O)(=O)[O-])c2ccc3ccccc3c21 [ICG, indocyanine green]
PPB (plasma protein): 99%

Transcutaneous elimination (clearance) curve, in words ([3]; healthy rats): no decay even at 90 min post-injection
Compound: CC1(C)C(/C=C/C2=C(Oc3ccc(S(=O)(=O)O)cc3)C(=C/C=C3/N(CCCCS(=O)(=O)O)c4ccc(S(=O)(=O)[O-])cc4C3(C)C)/CCC2)=[N+](CCCCCC(=O)O)c2ccc(S(=O)(=O)O)cc21 [IRDye800CW, reference compound]
PPB (plasma protein; previous study of the authors): 41%

Compound: CNC(=O)c1c(I)c(NC(C)=O)c(I)c(C(=O)O)c1I [iothalamate]
PPB (plasma protein; 'gold standard' renal function agent): 9.5%
